From patent EP0444482B1, “Oxetanones” (F. HOFFMANN-LA ROCHE AG, priority 1990, dated 1991)

Legend:
Schweinepankreaslipase = target: T1, Schweinepankreaslipase (Sus scrofa, UniProt P00591); experiment: Inhibition of pancreatic lipase (titrimetric measurement of oleic acid released from triolein); type: biochemical, Schwein; settings: substrate triolein emulsion, pH 8, NaOH consumption over 10 min, 1-3 µg lipase; concentration giving half-maximal inhibition of lipase activity; read-out: IC₅₀ (converted)
T1 sequence (P00591 1-450): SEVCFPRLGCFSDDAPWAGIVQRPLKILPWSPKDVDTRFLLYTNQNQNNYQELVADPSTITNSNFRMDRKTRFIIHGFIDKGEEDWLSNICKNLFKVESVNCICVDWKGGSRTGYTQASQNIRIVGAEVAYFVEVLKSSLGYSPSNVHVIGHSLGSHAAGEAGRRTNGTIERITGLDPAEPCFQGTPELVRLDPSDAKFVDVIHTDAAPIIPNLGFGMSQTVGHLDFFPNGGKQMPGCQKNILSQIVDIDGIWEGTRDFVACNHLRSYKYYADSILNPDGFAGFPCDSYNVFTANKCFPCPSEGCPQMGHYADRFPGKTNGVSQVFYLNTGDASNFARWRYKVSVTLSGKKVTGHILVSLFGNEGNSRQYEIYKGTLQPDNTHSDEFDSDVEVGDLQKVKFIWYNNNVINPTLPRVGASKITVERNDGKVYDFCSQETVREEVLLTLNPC
Method: Die Hemmung der Pankreaslipase durch die Oxetanone der Formel I kann experimentell gezeigt werden, indem man die bei der Spaltung von Triolein durch Schweinepankreaslipase freigesetzte Oelsäure titrimetrisch erfasst. Zu einer Emulsion, welche 1 mM Taurodeoxycholat, 9 mM Taurocholat, 0,1 mM Cholesterin, 1 mM Eilezithin, 15 mg/ml BSA, 2 mM Tris-HCl, 100 mM Natriumchlorid, 1 mM Calciumchlorid und das Substrat Triolein enthält, gibt man die in Aethanol oder Dimethylsulfoxid (10% des Emulsionsvolumens) gelöste Verbindung der Formel I und startet die Reaktion durch Zugabe von 1-3 µg Schweinepankreaslipase. Das pH wird während der Reaktion durch Zugabe von Natronlauge bei 8 gehalten. Aus dem während 10 Minuten ermittelten Verbrauch an Natronlauge wird die IC₅₀ berechnet. Die IC₅₀ ist diejenige Konzentration, bei der die Lipaseaktivität halbmaximal gehemmt wird. Die nachfolgende Tabelle enthält die für die Verbindungen der Formel I ermittelten IC₅₀-Werte in µg/ml.

[1] = Acute toxicity after a single oral administration; settings: mouse, in vivo, mice, read-out: akute Toxizität
Method: Die akute Toxizität (nach einmaliger oraler Verabreichung an Mäusen) beträgt mehr als 5000 mg/kg für die Produkte der Beispiele 3d, 3h, 3i, 3l, 4a und 10a, b, e und f.

SMILES | IC50 (Schweinepankreaslipase) [nM] | LD50 [1] [mg/kg]
CCCCCCCCCCC[C@@H](C[C@@H]1OC(=O)[C@H]1CCCCCC)OC(=O)C(C(N)=O)C(C)C (single isomer, unassigned) [Beispiel 2b] | 131 | –
CCCCCCCCCCCCCCCCC[C@@H](C[C@@H]1OC(=O)[C@H]1CC)OC(=O)CCC(N)=O [Beispiel 10f, (S)-1-[[(2S,3S)-3-Aethyl-4-oxo-2-oxetanyl]methyl]octadecyl-succinamat] | 664 | > 5000
CCCCCCCCCCCCCCCCC[C@@H](C[C@@H]1OC(=O)[C@H]1CC)OC(=O)C(C)C(N)=O (stereo partly drawn) [Beispiel 10e, (S)-1-[[(2S,3S)-3-Aethyl-4-oxo-2-oxetanyl]methyl]octadecyl-(RS)-2-methylmalonamat] | 56 | > 5000
CCCCCCCCCCC[C@@H](C[C@@H]1OC(=O)[C@H]1CCCCCC)OC(=O)C(C)C(N)=O (mixture of isomers) [Beispiel 3i, (S)-1-[[(2S,3S)-3-Hexyl-4-oxo-2-oxetanyl]methyl]dodecyl-(RS)-2-methylmalonamat] | 926 | > 5000
CCCCCCCCCCC[C@@H](C[C@@H]1OC(=O)[C@H]1CCCCCC)OC(=O)C(CCCC)C(N)=O (mixture of isomers) [Beispiel 3k, (S)-1-[[(2S,3S)-3-Hexyl-4-oxo-2-oxetanyl]methyl]dodecyl-(RS)-2-butylmalonamat] | 242 | –
CCCCCCCCCCC[C@@H](CC1OC(=O)C1SCCCCC)OC(=O)C(C(N)=O)C(C)C (stereo partly drawn) [Beispiel 6b, (S)-1-[[(2S,3S oder 2R,3R)-4-Oxo-3-pentylthio-2-oxetanyl]methyl]-dodecyl-[S:R oder R:S(2:1)]-2-isopropylmalonamat] | 112 | –
CCCCCCCCCCC[C@@H](C[C@@H]1OC(=O)[C@H]1CCCCCC)OC(=O)C(CC)C(N)=O (stereo partly drawn) [Beispiel 3j, (S)-1-[[(2S,3S)-3-Hexyl-4-oxo-2-oxetanyl]methyl]dodecyl-(RS)-2-äthylmalonamat] | 342 | –
CCCCCCCCCCC[C@@H](C[C@@H]1OC(=O)[C@H]1CCCCCC)OC(=O)C(C)(C)C(N)=O [Beispiel 3h, (S)-1-[[(2S,3S)-3-Hexyl-4-oxo-2-oxetanyl]methyl]dodecyl-2,2-dimethylmalonamat] | 4490 | > 5000
CCCCCCCCCCCCCCCCC[C@@H](C[C@@H]1OC(=O)[C@H]1CC)OC(=O)CC(N)=O [Beispiel 10b, (S)-1-[[(2S,3S)-3-Aethyl-4-oxo-2-oxetanyl]methyl]octadecylmalonamat] | 89.8 | > 5000
CCCCCCCCCCCCCCCCC[C@@H](C[C@@H]1OC(=O)[C@H]1CC)OC(=O)C(N)=O [Beispiel 10a, (S)-1-[[(2S,3S)-3-Aethyl-4-oxo-2-oxetanyl]methyl]octadecyloxamat] | 183 | > 5000
CCCCCCCCCCC[C@@H](C[C@@H]1OC(=O)[C@H]1CCCCCC)OC(=O)C(CCC)C(N)=O (mixture of isomers) [Beispiel 2d, (S)-1-[[(2S,3S)-3-Hexyl-4-oxo-2-oxetanyl]methyl]-dodecyl-(RS) -2-carbamoylvalerat] | 249 | –
CCCCCCCCCCCCCCCCC[C@@H](C[C@@H]1OC(=O)[C@H]1CC)OC(=O)C(C(N)=O)C(C)C (single isomer, unassigned) [Beispiel 1a] | 62.8 | –
CCCCCCCCCCC[C@@H](C[C@H]1OC(=O)[C@@H]1Cc1ccccc1)OC(=O)C(C(N)=O)C(C)C (single isomer, unassigned) [Beispiel 7b] | 162 | –
CCCCCCCCCCCCCCCCC[C@@H](C[C@@H]1OC(=O)[C@H]1CC)OC(=O)C1(C(N)=O)CCCCC1 [Beispiel 4a, (S)-1-[[(2S,3S)-3-Aethyl-4-oxo-2-oxetanyl]methyl]octadecyl-1-carbamoylcyclohexancarboxylat] | 299 | > 5000
CCCCCCCCCCC[C@@H](C[C@@H]1OC(=O)[C@H]1CCCCCC)OC(=O)C(CC(C)C)C(N)=O (mixture of isomers) [Beispiel 3f, (S)-1-[[(2S,3S)-3-Hexyl-4-oxo-2-oxetanyl]methyl]dodecyl-(RS)-2-carbamoyl-4-methylvalerat] | 167 | –
CCCCCCCCCCC[C@@H](C[C@@H]1OC(=O)[C@H]1CCCCCC)OC(=O)C(CC)(CC)C(N)=O [Beispiel 3l, (S)-1-[[(2S,3S)-3-Hexyl-4-oxo-2-oxetanyl]methyl]dodecyl-2,2-diäthylmalonamat] | 1570 | > 5000
CCCCCCCCCCC[C@@H](C[C@@H]1OC(=O)[C@H]1CCCCCC)OC(=O)CC(N)=O [Beispiel 3c, 2-Carbamoylessigsäure-(S)-1-[[(2S,3S)-3-hexyl-4-oxo-2-oxetanyl]methyl]dodecylester] | 887 | –

SMILES | IC50 (Schweinepankreaslipase) [nM] | LD50 [1] [mg/kg]
CCCCCCCCCCC[C@@H](C[C@@H]1OC(=O)[C@H]1CCCCCC)OC(=O)C(Cc1ccccc1)C(N)=O (stereo partly drawn) [Beispiel 45, (S)-1-[[(2S,3S)-3-Hexyl-4-oxo-2-oxetanyl]methyl]dodecyl-(RS)-2-benzylmalonomat] | 88.7 | –
CCCCCCCCCCCCCCCCC[C@@H](C[C@@H]1OC(=O)[C@H]1CC)OC(=O)[C@@H]1CCC(=O)N1 [Beispiel 78d, 5-Oxo-L-prolin-(S)-1-[[(2S,3S)-3-äthyl-4-oxetanyl]methyl]octadecyl-ester] | 103 | –
CCCCCCCCCCC[C@@H](C[C@@H]1OC(=O)[C@H]1CCCCCC)OC(=O)C(N)=O [Beispiel 3d, (S)-1-[[(2S,3S)-3-Hexyl-4-oxo-2-oxetanyl]methyl]dodecyloxamat] | 2110 | > 5000
CCCCC/C=C\C/C=C\CCCCCCC[C@@H](C[C@@H]1OC(=O)[C@H]1CC)OC(=O)C(C(N)=O)C(C)C (single isomer, unassigned) [Beispiel 2g1] | 103 | –
CCCCCCCCCCC[C@@H](C[C@@H]1OC(=O)[C@H]1CCCCCC)OC(=O)C1(C(N)=O)CCCCC1 [Beispiel 3g, (S)-1-[[(2S,3S)-3-Hexyl-4-oxo-2-oxetanyl]methyl]dodecyl-1-carbamoylcydohexancarboxylat] | 579 | –
CCCCCCCCCCCCCCCCC[C@@H](C[C@@H]1OC(=O)[C@H]1CC)OC(=O)CC(=O)NC [Beispiel 10c, (S)-1-[[(2S,3S)-3-Aethyl-4-oxo-2-oxetanyl]methyl]octadecyl-N-methylmalonamat] | 208 | –
CCCCCCCCCCCCCCCCC[C@@H](C[C@@H]1OC(=O)[C@H]1CC)OC(=O)C(C(N)=O)C(C)(C)C (single isomer, unassigned) [Beispiel 37] | 64.9 | –
CCCCC/C=C\C/C=C\CCCCCCC[C@@H](C[C@@H]1OC(=O)[C@H]1CC)OC(=O)C(C(N)=O)C(C)C (single isomer, unassigned) [Beispiel 2g2] | 25.7 | –
CCCCCCCCCCCCCCCCC[C@@H](C[C@@H]1OC(=O)[C@H]1CC)OC(=O)C1(C(N)=O)CCCC1 [Beispiel 43, (S)-1-[[(2S,3S)-3-Aethyl-4-oxo-2-oxetanyl]methyl]octadecyl-1-carbamoylcyclopentancarboxylat] | 230 | –
CCCCCCCCCCCCCCCCC[C@@H](C[C@@H]1OC(=O)[C@H]1CC)OC(=O)C1(C(N)=O)OCCO1 [Beispiel 2f, (S)-1-[[(2S,3S)-3-Aethyl-4-oxo-2-oxetanyl]-methyl]octadecyl-2-carbamoyl-1,3-dioxolan-2-carboxylat] | 894 | –
CCCCCCCCCCC[C@@H](C[C@@H]1OC(=O)[C@H]1CCCCCC)OC(=O)CCSCCC(N)=O [Beispiel 51, (S)-1-[[(2S,3S)-3-Hexyl-4-oxo-2-oxetanyl]methyl]dodecyl-3-[(2-carbamoyläthyl)thio]propionat] | 701 | –
CCCCCCCCCCCCCCCCC[C@@H](C[C@@H]1OC(=O)[C@H]1CC)OC(=O)[C@H]1CCC(=O)N1 [Beispiel 78c, 5-Oxo-D-prolin-(S)-1-[[(2S,3S)-3-äthyl-4-oxo-2-oxetanyl]methyl]octadecyl-ester] | 567 | –
CCCCCCCCCCC[C@@H](C[C@@H]1OC(=O)[C@H]1CCCCCC)OC(=O)CC(=O)NC [Beispiel 3e, (S)-1-[[(2S,3S)-3-Hexyl-4-oxo-2-oxetanyl]methyl]dodecyl -N-methylmalonamat] | 3110 | –
CCCCCCCCCCCCCCCCC[C@@H](C[C@@H]1OC(=O)[C@H]1CC)OC(=O)C(C(N)=O)C(C)C (single isomer, unassigned) [Beispiel 1b] | 49 | –
CCCCCCCCCCCCCCCCC[C@@H](C[C@@H]1OC(=O)[C@H]1CC)OC(=O)C(CCC)C(N)=O (stereo partly drawn) [Beispiel 2e, (S)-1-[[(2S,3S)-3-Aethyl-4-oxo-2-oxetanyl]-methyl]octadecyl-(RS)-2-carbamoylvalerat] | 100 | –
CCCCCCCCCCCCCCCCC[C@@H](C[C@@H]1OC(=O)[C@H]1CC)OC(=O)CC(=O)N(C)C [Beispiel 10d, (S)-1-[[(2S,3S)-3-Aethyl-4-oxo-2-oxetanyl]methyl]octadecyl-N,N-dimethylmalonamat] | 948 | –
